Blank lines part the entries; values can stand above or below the molecule they belong to.
Assays:
[1] = molecular target: T1, RpPduP (Rhodopseudomonas palustris, UniProt Q21A49, P164G/I199R/N203L/I222L/L268I/P269T/V271T/L423H, form not given); experiment: NADH oxidation, absorbance at […] nm; type: biochemical; settings: GCR; saturating acetyl-CoA; pH 8.0 Hepes, 37 °C, 5 mM MgCl2; Table 2 note numbers mutations +2; read-out: Engineered GCR
T1 construct: gene RPC_1174; N-terminal 6xHis, pET45a, expressed in E. coli BL21(DE3), Ni-NTA
T1 sequence (Q21A49 entry or part of it P164G/I199R/N203L/I222L/L268I/P269T/V271T/L423H, form open): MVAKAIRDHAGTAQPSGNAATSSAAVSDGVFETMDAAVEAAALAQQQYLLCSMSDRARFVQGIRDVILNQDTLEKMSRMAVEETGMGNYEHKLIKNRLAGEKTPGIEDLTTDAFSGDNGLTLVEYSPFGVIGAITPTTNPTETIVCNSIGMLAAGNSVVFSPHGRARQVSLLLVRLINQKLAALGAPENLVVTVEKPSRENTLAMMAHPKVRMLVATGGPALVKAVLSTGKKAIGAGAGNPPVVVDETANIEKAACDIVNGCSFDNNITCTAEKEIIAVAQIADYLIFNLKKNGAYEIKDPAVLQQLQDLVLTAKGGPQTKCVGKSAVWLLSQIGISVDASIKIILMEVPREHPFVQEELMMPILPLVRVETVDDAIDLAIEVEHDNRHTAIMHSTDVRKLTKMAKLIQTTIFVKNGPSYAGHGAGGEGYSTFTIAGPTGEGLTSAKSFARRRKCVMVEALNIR

[2] = molecular target: T2, RpPduP (Rhodopseudomonas palustris, UniProt Q21A49); experiment: NADH oxidation, absorbance at […] nm; type: biochemical; settings: pH 8.0 Hepes, 37 °C, 5 mM MgCl2
T2 construct: gene RPC_1174; N-terminal 6xHis, pET45a, expressed in E. coli BL21(DE3), Ni-NTA
T2 sequence (Q21A49 entry or part of it): as the sequence (Q21A49 entry or part of it P164G/I199R/N203L/I222L/L268I/P269T/V271T/L423H, form open) above, with G164P, R199I, L203N, L222I, I268L, T269P, T271V, H423L counted along it

[3] = molecular target: T1, RpPduP; experiment: NADPH oxidation, absorbance at […] nm; type: biochemical; settings: GCR, pH 8.0 Hepes, 37 °C, 5 mM MgCl2, Table 2 note numbers mutations +2, read-out: Engineered GCR
[4] = molecular target: T2, RpPduP; experiment: NADPH oxidation, absorbance at […] nm; type: biochemical; settings: pH 8.0 Hepes, 37 °C, 5 mM MgCl2
[5] = substrate: CC(=O)O; experiment: purified protein; settings: 1 mM CoA, 2.5 mM ATP, 5 mM MgCl2, 1 mM DTT, pH 8.0 Hepes, 37 °C

- Km [1]: 70 ± 10 µM
- Km ([2]; saturating acetyl-CoA): 120 ± 30 µM
Molecule: NC(=O)C1=CN([C@@H]2O[C@H](COP(=O)(O)OP(=O)(O)OC[C@H]3O[C@@H](n4cnc5c(N)ncnc54)[C@H](O)[C@@H]3O)[C@@H](O)[C@H]2O)C=CC1 [NADH]

- Km ([3]; saturating glycolyl-CoA): 240 ± 60 µM
- Km ([4]; saturating glycolyl-CoA): 370 ± 90 µM
Molecule: NC(=O)C1=CN([C@@H]2O[C@H](COP(=O)(O)OP(=O)(O)OC[C@H]3O[C@@H](n4cnc5c(N)ncnc54)[C@H](OP(=O)(O)O)[C@@H]3O)[C@@H](O)[C@H]2O)C=CC1 [NADPH]

- Km ([3]; saturating NADPH): 220 ± 60 µM
- Km ([4]; saturating NADPH): 220 ± 20 µM
Molecule: CC(=O)SCCNC(=O)CCNC(=O)[C@H](O)C(C)(C)COP(=O)(O)OP(=O)(O)OC[C@H]1O[C@@H](n2cnc3c(N)ncnc32)[C@H](O)[C@@H]1OP(=O)(O)O [acetyl-CoA]

- Km ([2]; saturating NADH): 220 ± 120 µM
- Km ([3]; saturating NADPH): 240 ± 20 µM
Molecule: CC(C)(COP(=O)(O)OP(=O)(O)OC[C@H]1O[C@@H](n2cnc3c(N)ncnc32)[C@H](O)[C@@H]1OP(=O)(O)O)[C@@H](O)C(=O)NCCC(=O)NCCSC(=O)CO [glycolyl-CoA]

B1: EcACS (Escherichia coli K-12) (protein)
chain: MSQIHKHTIPANIADRCLINPQQYEAMYQQSINVPDTFWGEQGKILDWIKPYQKVKNTSFAPGNVSIKWYEDGTLNLAANCLDRHLQENGDRTAIIWEGDDASQSKHISYKELHRDVCRFANTLLELGIKKGDVVAIYMPMVPEAAVAMLACARIGAVHSVIFGGFSPEAVAGRIIDSNSRLVITSDEGVRAGRSIPLKKNVDDALKNPNVTSVEHVVVLKRTGGKIDWQEGRDLWWHDLVEQASDQHQAEEMNAEDPLFILYTSGSTGKPKGVLHTTGGYLVYAALTFKYVFDYHPGDIYWCTADVGWVTGHSYLLYGPLACGATTLMFEGVPNWPTPARMAQVVDKHQVNILYTAPTAIRALMAEGDKAIEGTDRSSLRILGSVGEPINPEAWEWYWKKIGNEKCPVVDTWWQTETGGFMITPLPGATELKAGSATRPFFGVQPALVDNEGNPLEGATEGSLVITDSWPGQARTLFGDHERFEQTYFSTFKNMYFSGDGARRDEDGYYWITGRVDDVLNVSGHRLGTAEIESALVAHPKIAEAAVVGIPHNIKGQAIYAYVTLNHGEEPSPELYAEVRNWVRKEIGPLATPDVLHWTDSLPKTRSGKIMRRILRKIAAGDTSNLGDTSTLADPGVVEKLLEEKQAIAMPS
- Km [5]: 87 ± 4 µM
- kcat [5]: 13.5 s⁻¹
- kcat/Km [5]: 155000 M⁻¹ s⁻¹
